In article PMC12656546, “Enterohepatic Recirculation-Mediated Reabsorption of Aristolochic Acid I: Revealed by Toxicokinetics and Metabolite Identification in Rats” (Toxics, 2025):
Like-named read-outs stand apart in the source and are kept apart here.

Key:
[1] = nine months after a single administration of AAI, cited from earlier work
[2] = Stability of AAI in rat plasma samples (QC samples); format: in vitro ADME; settings: n = 3
Protocol: A full validation of the bioanalytical method for the quantitative analysis of AAI in rat plasma was performed in inherence to the ICH M10 guideline. Selectivity, accuracy and precision, matrix effects, calibration curve and range, dilution integrity and stability were fully validated. The analyzed QCs included a lower limit of quantitation (LLOQ) sample, low QC (LQC), medium QC (MQC) and high QC (HQC). QCs of four concentration levels (LLOQ: 1 ng/mL; LQC: 3 ng/mL; MQC: 400 ng/mL; HQC: 800 ng/mL) were prepared by spiking AAI with blank plasma collected from 6 rats.
Stability evaluation was carried out by analyzing LQCs and HQCs after storage under different conditions. Freeze–thaw stability was assessed after 3 cycles of freezing and thawing. Short-term stability was tested by keeping the LQCs and HQCs on the bench top at room temperature for the same duration as the study samples. Stability of the analyte in processed samples was tested by placing the processed samples in an autosampler for 16 h. Long-term stability was assessed by storing LQCs and HQCs at −20 °C for 15 days. The mean concentration at each QC level should be within ±15% of the nominal concentration.

[3] = Freeze–thaw stability (3 cycles), rat plasma, nominal conc. 3 ng/mL
[4] = Freeze–thaw stability (3 cycles), rat plasma, nominal conc. 800 ng/mL
[5] = Long-term stability (−20 °C, 15 days), rat plasma, nominal conc. 3 ng/mL
[6] = Long-term stability (−20 °C, 15 days), rat plasma, nominal conc. 800 ng/mL
[7] = Post-processing stability (processed samples in autosampler 16 h), nominal conc. 3 ng/mL
[8] = Post-processing stability (processed samples in autosampler 16 h), nominal conc. 800 ng/mL
[9] = Short-term stability (bench top, room temperature), rat plasma, nominal conc. 3 ng/mL
[10] = Short-term stability (bench top, room temperature), rat plasma, nominal conc. 800 ng/mL

COc1cccc2c1cc([N+](=O)[O-])c1c(C(=O)O)cc3c(c12)OCO3 [AAI, Aristolochic acid I]
mice developing liver cancer ([1]; female mice): 41.67%
mice developing liver cancer ([1]; male mice): 78.57%
Accuracy (%Dev) [2, 3]: 4.10 %Dev
Mean Calculated Conc. [2, 3]: 3.12 ng/mL
Accuracy (%Dev) [2, 4]: 1.30 %Dev
Mean Calculated Conc. [2, 4]: 810.42 ng/mL
Accuracy (%Dev) [2, 5]: 6.54 %Dev
Mean Calculated Conc. [2, 5]: 3.20 ng/mL
Accuracy (%Dev) [2, 6]: 4.71 %Dev
Mean Calculated Conc. [2, 6]: 837.66 ng/mL
Accuracy (%Dev) [2, 7]: −10.53 %Dev
Mean Calculated Conc. [2, 7]: 2.68 ng/mL
Accuracy (%Dev) [2, 8]: −11.83 %Dev
Mean Calculated Conc. [2, 8]: 705.33 ng/mL
Accuracy (%Dev) [2, 9]: 3.46 %Dev
Mean Calculated Conc. [2, 9]: 3.10 ng/mL
Accuracy (%Dev) [2, 10]: −2.99 %Dev
Mean Calculated Conc. [2, 10]: 776.07 ng/mL
